Patent US20260263470A1, “A METHOD FOR THE TREATMENT OF CHRONIC HAND ECZEMA IN PATIENTS WITH MODERATE TO SEVERE CHRONIC HAND ECZEMA” (priority 2023, published 2026)
In brackets after ≈: the same amount, converted by molar mass.

Columns and labels:
[1] = test system: adult patients with moderate-to-severe CHE; test: DELTA 1 and DELTA 2 together (pooled analyses and statements made for both trials); type: in vivo, human
Method: In a pooled analysis of both trials, changes in EQ-5D scores from baseline to week 16 were assessed in all patients and in a post-hoc analysis of patients achieving clinical responses (defined as Hand Eczema Area and Severity Index (HECSI)-50, -75, and -90, Investigator's Global Assessment for CHE treatment success [IGA-CHE TS; clear or almost clear skin with a ≥2-step improvement from baseline] and ≥4-point improvements in Hand Eczema Symptom Diary (HESD) itch and pain scores.
DELTA 1 and DELTA 2 were phase 3 trials of identical design. […] Data were pooled from both trials and changes in DLQI scores were assessed from baseline to week 16 in all patients and in a post-hoc analysis of patients achieving clinical responses, defined as Hand Eczema Area and Severity Index (HECSI)-50, -75, and -90, Investigator's Global Assessment for CHE treatment success (IGA-CHE TS; a score of 0/1 with a ≥2-step improvement from baseline), and ≥4-point improvements in Hand Eczema Symptom Diary (HESD) itch and pain scores.
The Hand Eczema Symptom eDiary (HESD) captured patient-reported severity of itch and pain over the past 24 hours on an 11-point numeric rating scale (0=no itch/pain to 10=severe itch/pain). Changes in itch and pain from baseline were assessed daily during Week (W)1 and weekly from W1-16.

[2] = Systemic exposure in DELTA 2: plasma concentrations of delgocitinib after cream application (LC/MS); type: in vivo, human; settings: for plasma concentration of delgocitinib (geometric mean): 2-6 hours after application of cream 20 mg/g twice daily
Text: (§1) Data are reported as geometric means.

[3] = test system: IL-4 release in whole-blood; test: in vitro IL-4 release assay in whole-blood of healthy volunteers; type: cell-based; settings: Homo sapiens; whole-blood of healthy volunteers (n=4)
Text: as §1

[4] = Phase 1 trial, single oral doses of delgocitinib in healthy volunteers; type: in vivo; settings: human, plasma, single oral dose 1.5 mg, read-out: peak systemic exposure (geometric mean Cmax)
Text: as §1

Plasma protein binding = type: in vitro ADME
[5] = Half-life following repeated topical administration of delgocitinib cream; type: in vivo; settings: human, plasma, 20 mg/g

For `C[C@H]1CN(C(=O)CC#N)[C@]12CCN(c1ncnc3[nH]ccc13)C2` [delgocitinib, Delgocitinib], the “rates of all AEs, AEs related to study drug and AEs leading to discontinuation of study drug, versus cream vehicle” value ([1]; baseline to trial completion) was “numerically higher with cream vehicle compared to delgocitinib”, the “onset of itch and pain reduction” value ([1]; pooled) was “Early onset of itch and pain reduction was observed within W1” and the “decrease of detectable absorption by week 16” value ([2]; DELTA 2) was 48%. For the same compound, the “plasma concentration of delgocitinib (geometric mean)” value (shortened to “plasma concentration of delgocitinib”) ([2]; DELTA 2, Week 1) was 0.21 ng/mL, the “plasma concentration of delgocitinib” value ([2]; DELTA 2, Week 4) was 0.20 ng/mL and the “plasma concentration of delgocitinib” value ([2]; DELTA 2, Week 16) was 0.12 ng/mL. The “mean plasma concentration in the remaining subjects with detectable absorption” value ([2]; DELTA 2, week 16) was 0.11 ng/mL, the steady state reached ([2]; given as Delta 2) was no more than 8 days and the AUC(0-t) ([2]; human, plasma, topical, 20 mg/g, given as Delta 2, day 8, read-out: area under the concentration-curve from time 0 to 12 hours (AUC0-12), geometric mean) was 3.7 ng·h/mL. The Cmax ([2]; human, plasma, topical, 20 mg/g, given as Delta 2, day 8, read-out: geometric mean maximum plasma concentration (Cmax)) was 0.46 ng/mL, the IC50 [3] was 0.0172 µg/mL (≈ 0.0554 µM) and the Cmax [4] was 7.2 ng/mL. For the same compound, the fraction unbound (Plasma protein binding) was 0.71 to 0.78 and the half-life [5] was 20.3 h.
